Measurements taken from US7501513B2, “Immunosuppressive effects of pteridine derivatives” (4 AZA Bioscience NV, priority 2003, dated 2009).
Read-outs that look alike come from different tables or passages of the source.

Legend:
[1] = test system: Peripheral blood mononuclear cells; assay: Mixed lymphocyte reaction (MLR) test; assay type: cell-based, human; conditions: 50% suppression of the MLR
Experimental: (§1) Pteridine derivatives were first dissolved (10 mM) in dimethylsulfoxide (hereinafter referred as DMSO) and further diluted in culture medium before use for the following in vitro experiments. The commercially available culture medium consisted of RPMI-1640+10% foetal calf serum (FCS). Some pteridine derivatives described the previous examples were tested in the following lymphocyte activation tests:
(§2) Peripheral blood mononuclear cells (hereinafter referred as PBMC) were isolated from heparinized peripheral blood by density gradient centrifugation over Lymphoprep (Nycomed, Maorstua, Norway). Allogeneic PBMC or Eppstein-Barr Virus-transformed human B cells [commercially available under the trade name RPMI1788 (ATCC name CCL156)] which strongly express B7-1 and B7-2 antigens were used as stimulator cells after irradiation with 30 Gy. MLR was performed in triplicate wells. After 5 days incubation at 37° C., 1 μCi [^3H]-thymidine was added to each cup. After a further 16 hours incubation, cells were harvested and counted in a β-counter. Inhibition of proliferation by a compound (drug) described in some of the previous examples was counted using the formula:
(§3) [formula] wherein cpm is the thymidine count per minute. The MLR assay is regarded by those skilled in the art as an in vitro analogue of the transplant rejection since it is based on the recognition of allogeneic major histocompatibility antigens on the stimulator leukocytes, by responding lymphocytes. Assays for CD3 and CD 28
Pteridine derivatives were first dissolved (10 mM) in dimethylsulfoxide (hereinafter referred as DMSO) and further diluted in culture medium before use for the following in vitro experiments. The commercially available culture medium consisted of RPMI-1640+10% foetal calf serum (FCS). Some pteridine derivatives described in the previous examples (as indicated in table 3 below) were tested in the following mixed lymphocyte reaction (MLR) assay.
as §2, with “CCL156)]which” for “CCL156)] which”
as §3, with “lymphocytes.” for “lymphocytes. Assays for CD3 and CD 28”

[2] = test system: human TNF-α; assay: TNF-α assay: suppression of TNF-α production by LPS-stimulated PBMC (ELISA); assay type: cell-based; conditions: LPS 1 μg/ml, 72 hours
Experimental: (§4) Peripheral blood mononuclear cells (herein referred as PBMC), in response to stimulation by lipopolysaccharide (LPS), a gram-negative bacterial endotoxin, produce various […], in particular human TNF-α and IL-1 β. Inhibition of the activation of PBMC can therefore be measured by the level of suppression of the production of TNF-α or IL-1 β by PBMC in response to stimulation by LPS.
(§5) Such inhibition measurement was performed as follows: PBMC were isolated from heparinized peripheral blood by density gradient centrifugation over Lymphoprep (commercially available from Nycomed, Norway). LPS was then added to the PMBC suspension in complete medium (10^6 cells/ml) at a final concentration of 1 μg/ml. The pteridine derivative to be tested was added at different concentrations (0.1 μM, 1 μM and 10 μM) and the cells were incubated at 37° C. for 72 hours in 5% CO2. The supernatants were collected, then TNF-α and/or IL-1 β concentrations were measured with respectively an anti-TNF-α antibody or an anti-IL-1 β antibody in a sandwich ELISA (Duo Set ELISA human TNFα, commercially available from R&D Systems, United Kingdom). The calorimetric reading of the ELISA was measured by a Multiskan RC plate reader (commercially available from ThermoLabsystems, Finland) at 450 nm (reference wavelength: 690 nm). Data analysis was performed with Ascent software 2.6. (also from ThermoLabsystems, Finland): a standard curve (recombinant human TNFα) was drawn and the amount (pg/ml) of each sample on the standard curve was determined.
The % suppression of human TNFα production or human IL-1 β by the pteridine derivatives of the invention (drugs) was calculated using the formula: […]
as §4, with “(hereinafter LPS),” for “(LPS),”, “TNF-α.” for “TNF-α and IL-1 β.”, “TNF-α” for “TNF-α or IL-1 β”
as §5, with “TNF-α” for “TNF-α and/or IL-1 β”, “with” for “with respectively”, “anti-TNF-α” for “anti-TNF-α antibody or an anti-IL-1 β”, “TNF-α,” for “TNFα,”, “colorimetric” for “calorimetric”
The % suppression of human TNFα production by the pteridine derivatives of the invention (drugs) was calculated using the formula: […]

[3] = test system: Highly purified T cells stimulated by anti-CD3 mAb; assay: CD3 assay: T-cell proliferation stimulated by immobilized anti-CD3 mAb + PMA (BrdU); assay type: cell-based, human; conditions: 50% reduction in T-cell proliferation, read-out: CD 3 IC50
Experimental: as §1
(§6) T cells were purified by removing non-T cells. Briefly, monocytes were removed by cold agglutination. The resulting lymphoid cells were further purified by a cell enrichment immunocolumn [Cellect Human T commercially available from Biotex, Edmonton, Alberta, Canada)] by a process of negative selection. More than 95% of the B cells were removed with this procedure. After depletion, the resulting T cell preparation was highly purified, i.e. these cells could not be activated by phytohaemagglutinin (PHA) or rIL-2 alone at concentrations capable of stimulating RBMC prior to deletion.
(§7) Highly purified T cells (10^6/ml) were stimulated by immobilized anti-CD3 or anti-CD28 monoclonal antibodies (hereinafter referred as mAb) in the presence of phorbol myristate acetate (hereinafter referred as PMA). Anti-CD3 mAb (available from CLB, Amsterdam, Netherlands) were fixed on a 96-microwell plates by incubating the wells with 50 μl of mAb solution (1/800 dilution in culture medium). For anti-CD28 mAb (available from CLB, Amsterdam, Netherlands) 50 μl (1/650 dilution in culture medium) was added directly to the wells. Further, a 20 μl PMA (commercially available from Sigma, St. Louis, Mo., USA) solution (final concentration: 0.5 ng/ml) was added. Subsequently, 20 μl of a pteridine derivative described in the previous examples were added by serial dilution in triplicate wells. Finally 100 μl of the T-cell suspension (10^6/ml) was added. After 48-hour incubation at 37° C. in 5% CO2, 20 μl of a bromo-deuridine (hereinafter referred as BrdU) 100 μM solution (commercially available as Cell Proliferation Elisa from Boehringer-Mannheim Belgium) was added to each well. After a further overnight incubation, T-cell proliferation was measured using a calorimetric immuno-assay for qualification of cell proliferation based on the incorporation of BrdU during DNA synthesis. Optical density (hereinafter referred as OD) was measured by a Behring EL311 plate reader at 450 nm (reference wavelength: 690 nm). Inhibition of proliferation by the pteridine derivative (drug) was counted while using the formula: […]

[4] = test system: Highly purified T cells stimulated by anti-CD28 mAb; assay: CD28 assay: T-cell proliferation stimulated by anti-CD28 mAb + PMA (BrdU); assay type: cell-based, human; conditions: 50% reduction in T-cell proliferation
Experimental: as §1, §6, §7

SMILES: CCOc1nc(N)nc2ncc(-c3cccc(OC)c3)nc12 [Example 15, 2-amino-6-(m-methoxyphenyl)-4-ethoxy-pteridine]
- IC50 ([1]; Homo sapiens, PBMC, Table 1): 8.3 µM
- IC50 ([2]; Homo sapiens, PBMC, Table 2): > 10 µM
- IC50 ([3]; Homo sapiens): 20 µM
- IC50 ([4]; Homo sapiens): 7 µM

SMILES: CCOc1nc(N)nc2ncc(-c3ccc(F)c(F)c3)nc12 [Example 16]
- IC50 ([1]; Table 1): > 10 µM
- IC50 [3]: 9 µM
- IC50 [4]: 4 µM

SMILES: CCOc1nc(N)nc2ncc(-c3ccc(C(F)(F)F)cc3)nc12 [Example 18, 2-amino-6-(p-trifluoromethylphenyl)-4-ethoxy-pteridine]
- IC50 ([1]; Homo sapiens, PBMC, Table 1): 10 µM
- IC50 ([3]; Homo sapiens): 10 µM
- IC50 ([4]; Homo sapiens): 0.8 µM

SMILES: CCOc1nc(N)nc2ncc(-c3ccsc3)nc12 [Example 20, 2-amino-6-(3-thienyl)-4-ethoxy-pteridine]
- IC50 ([3]; Homo sapiens): 15 µM
- IC50 ([4]; Homo sapiens): 0.7 µM

SMILES: CCOc1nc(N)nc2ncc(-c3ccc(CC)cc3)nc12 [Example 25, 2-amino-6-(p-ethylphenyl)-4-ethoxy-pteridine]
- IC50 ([1]; Homo sapiens, PBMC, Table 1): 8.2 µM
- IC50 ([2]; Homo sapiens, PBMC, Table 2): 8.5 µM
- IC50 ([3]; Homo sapiens): 10 µM
- IC50 ([4]; Homo sapiens): 10 µM

SMILES: Cc1ccc(-c2cnc3nc(N)nc(OC(C)C)c3n2)cc1C [Example 32, 2-amino-6-(3,4-dimethylphenyl)-4-isopropoxypteridine]
- IC50 ([1]; Homo sapiens, PBMC, Table 1): 10 µM
- IC50 ([2]; Homo sapiens, PBMC, Table 2): 6.7 µM

SMILES: CC(=O)Nc1ccc(-c2cnc3nc(N)nc(N4CCOCC4)c3n2)cc1 [Example 72, 2-amino-4-morpholino-6-(4-acetanilide)pteridine]
- IC50 ([1]; Table 3): 8.6 µM
- IC50 ([2]; Table 4): 8.4 µM

SMILES: Nc1ccc(-c2cnc3nc(N)nc(N4CCOCC4)c3n2)cc1 [Example 74, 2-amino-morpholino-6-(4-aminophenyl)pteridine]
- IC50 ([1]; Table 3): 1.1 µM
- IC50 ([2]; Table 4): 2.5 µM

SMILES: CCS(=O)(=O)Nc1cccc(-c2cnc3nc(N)nc(N4CCOCC4)c3n2)c1 [Example 97, 2-amino-4-morpholino-6-(3-ethylsulfonylaminophenyl)pteridine]
- IC50 ([1]; Homo sapiens, PBMC, Table 3): 3.3 µM
- IC50 ([2]; Homo sapiens, PBMC, Table 4): > 10 µM

SMILES: CC(C)(C)OC(=O)N[C@@H](Cc1ccccc1)C(=O)Nc1cccc(-c2cnc3nc(N)nc(N4CCOCC4)c3n2)c1 [Example 98, 2-amino-4-morpholino-6-[3-Boc-(L)-phenylalanine-aminophenyl]pteridine]
- IC50 ([1]; Table 3): 3.9 µM
- IC50 ([2]; Table 4): 2.9 µM

SMILES: Nc1nc(N2CCOCC2)c2nc(-c3ccc(O)cc3)cnc2n1 [Example 102, 2-amino-4-morpholino-6-(4-hydroxyphenyl)pteridine]
- IC50 ([1]; Homo sapiens, PBMC, Table 3): 4.3 µM
- IC50 ([2]; Homo sapiens, PBMC, Table 4): 2.1 µM

SMILES: CCOc1ccc(-c2cnc3nc(N)nc(N4CCOCC4)c3n2)cc1 [Example 103, 2-amino-4-morpholino-6-(4-ethoxyphenyl)pteridine]
- IC50 ([1]; Homo sapiens, PBMC, Table 3): 3.7 µM
- IC50 ([2]; Homo sapiens, PBMC, Table 4): > 10 µM

SMILES: CCCOc1ccc(-c2cnc3nc(N)nc(N4CCOCC4)c3n2)cc1 [Example 107, 2-amino-4-morpholino-6-(4-propoxy-phenyl)pteridine]
- IC50 ([1]; Homo sapiens, PBMC, Table 3): 6.8 µM
- IC50 ([2]; Homo sapiens, PBMC, Table 4): > 10 µM

SMILES: COc1ccc(-c2cnc3nc(N)nc(N(CCO)CCO)c3n2)cc1OC [Example 112]
- IC50 ([1]; Table 3): 6 µM
- IC50 ([2]; Table 4): 3.4 µM

SMILES: COc1ccc(-c2cnc3nc(N)nc(NCCc4ccccc4)c3n2)cc1OC [Example 114]
- IC50 ([1]; Table 3): 6 µM
- IC50 ([2]; Table 4): 7.1 µM

SMILES: COc1ccc(-c2cnc3nc(N)nc(N4CCC(C)CC4)c3n2)cc1OC [Example 115]
- IC50 ([1]; Table 3): 0.8 µM
- IC50 ([2]; Table 4): 0.3 µM

SMILES: COc1ccc(-c2cnc3nc(N)nc(NCc4cccs4)c3n2)cc1OC [Example 116]
- IC50 ([1]; Table 3): 4.1 µM
- IC50 ([2]; Table 4): 7.2 µM

SMILES: COc1ccc(-c2cnc3nc(N)nc(N4CCSCC4)c3n2)cc1OC [Example 118]
- IC50 ([1]; Table 3): 0.4 µM
- IC50 ([2]; Table 4): 0.5 µM

SMILES: CC[C@@H](C)Nc1nc(N)nc2ncc(-c3ccc(OC)c(OC)c3)nc12 [Example 119]
- IC50 ([1]; Table 3): 0.5 µM
- IC50 ([2]; Table 4): 0.2 µM

SMILES: CC[C@H](C)Nc1nc(N)nc2ncc(-c3ccc(OC)c(OC)c3)nc12 [Example 120]
- IC50 ([1]; Table 3): 0.2 µM
- IC50 ([2]; Table 4): 0.3 µM
